Experimental data: patent US20060088509A1, “Isolated clk-1 -/- cells from clk-1 heterozygous animals and their use in treating oxidative stress disorders” (priority 2004, published 2006)
Each block holds one molecule with its values, some of them ahead of it.

Key:
mclk1 −/− ES cells [1] = test: Sensitivity to cell death-inducing agents (trypan blue exclusion); format: cell-based, mouse; conditions: for Sensitivity of mclk1 −/− ES cells to the cell death-inducing agent: compared with mclk1 +/+ cells, etoposide 20 μM 24 h, anisomysin 2 μM 24 h, staurosporine 0.4 μM 24 h, all-trans retinoic acid 1 μM 96 h, sodium azide 15 μM 24 h
Procedure: We tested serum starvation (48 hours) and treatment with etoposide (20 μM, 24 hours), anisomysin (2 μM, 24 hours), staurosporine (0.4 μM; 24 hours), all-trans retinoic acid (1 μM, 96 hours) and sodium azide (15 μM, 24 hours).

mclk1 −/− ES cells [2] = test: Growth rate (cell multiplication); format: cell-based, mouse; conditions: for Cell multiplication, percent of the wild-type phenotype: number in brackets; for Cell multiplication: number of cells on day 5, day 1 being 1 × 10^5
Procedure: (§1) Cells were seeded in six-well dishes at 1×10^5/well in ES cell medium with or without supplements (UQ9: 0.16 μM, sodium pyvurate: 110 mg/L). At different time points, the cells were trypsinized and counted with a hemocytometer. The cells were also analyzed by the trypan blue exclusion method 24 hours after treatment with menadione (6 μM).

mclk1 +/+ ES cells [3] = test: Growth rate (cell multiplication); format: cell-based, mouse; conditions: for Cell multiplication, percent of the wild-type phenotype: number in brackets; for Cell multiplication: number of cells on day 5, day 1 being 1 × 10^5
Procedure: as §1

mclk1 −/− ES cells [4] = test: Cell death assay: resistance to menadione (trypan blue exclusion); format: cell-based, mouse; conditions: for Resistance to menadione [% viability]: 24 hours in menadione 6 μM, with the supplement named as label; for Resistance to menadione, percent of the wild-type phenotype: number in brackets
Procedure: as §1

mclk1 +/+ ES cells [5] = test: as above; format: cell-based, mouse; conditions: for Resistance to menadione [% viability]: 24 hours in menadione 6 μM, with the supplement named as label; for Resistance to menadione, percent of the wild-type phenotype: number in brackets
Procedure: as §1

mclk1 −/− ES cells [6] = test: Reactive oxygen species measurement (DCHF-DA fluorescence); format: cell-based, mouse; conditions: for Basal ROS levels, percent of the wild-type phenotype / Induced ROS levels, percent of the wild-type phenotype: number in brackets; for Induced ROS levels: oxidative stress induced by 0.1 mM FeSO4 and 0.2 mM sodium ascorbate
Procedure: (§2) For the fluorimetric measurement of ROS, cells were incubated with 10 μM DCHF-DA (Molecular Probes) for 20 min at 37° C. ROS levels were measured fluorimetrically with excitation and emission wavelenghts of 495 nm and 530 nm, respectively. Oxidative stress was induced by incubating the cells loaded with DCHF-DA with 0.1 mM FeSO4 and 0.2 mM sodium ascorbate.

mclk1 +/+ ES cells [7] = test: as above; format: cell-based, mouse; conditions: for Basal ROS levels, percent of the wild-type phenotype / Induced ROS levels, percent of the wild-type phenotype: number in brackets; for Induced ROS levels: oxidative stress induced by 0.1 mM FeSO4 and 0.2 mM sodium ascorbate
Procedure: as §2

mclk1 +/+ ES cells [8] = test: Oxygen consumption; format: cell-based, mouse; parameters: Oxygen consumption: scale not given here; conditions: for Oxygen consumption, percent of the wild-type phenotype: number in brackets
mclk1 +/+ ES cells [9] = test: LIF requirement assay; format: cell-based, mouse; parameters: LIF requirement [% undifferentiated colonies, n = 300]: dose or concentration left out as unconfirmed; conditions: for LIF requirement [% undifferentiated colonies, n = 300]: day 3, medium with LIF; for LIF requirement, percent of the wild-type phenotype: number in brackets
Procedure: (§3) ES cells were plated at a density of 500 cells/cm^2 in gelatin-coated 6-well plates in ES cell medium containing various concentration of LIF. Three days after inoculation, the proportion of undifferentiated colonies was determined after scoring the morphology of 300 randomly chosen colonies.

mclk1 −/− ES cells [10] = test: LIF requirement assay; format: cell-based, mouse; conditions: number in brackets
Procedure: as §3

mclk1 −/− ES cells [11] = test: Oxygen consumption; format: cell-based, mouse; conditions: for Oxygen consumption, percent of the wild-type phenotype: number in brackets; for Effect on low respiration, slow growth, and LIF resistance phenotypes: sentence also covers growth and LIF assays
Mitochondrial complex II = molecular target: T1, Mitochondrial complex II (Mus musculus, UniProt Q9CQA3+Q9CXV1+Q9CZB0); test: Mitochondrial complex II activity of mclk1 −/− ES cells; format: biochemical
T1 construct: mitochondria (containing 50 μg protein) were pre-incubated with reaction buffer; endogenous in cells; host or cells: mitochondria isolated from mouse mclk1 +/+ and mclk1 -/- ES cells
Procedure: Mitochondrial complex II activity was measured as follows: mitochondria (containing 50 μg protein) were pre-incubated with reaction buffer ([…]) for 10 minutes at room temperature. The reaction was started by adding 2 μg/ml Antimycin A, 2 μg/ml Rotenone, 2 mM KCN, 50 μM 2,6-Dichlorophenolindophenol (Sigma) in the presence or absence of 65 μM Q1. The linear decrease in absorbance at 600 nm was recorded (ε=21 mM-1 cm^−1).

[12] = mclk1 −/− ES cells, number in brackets

T1 sequence (Q8K2B3 43-664 partner): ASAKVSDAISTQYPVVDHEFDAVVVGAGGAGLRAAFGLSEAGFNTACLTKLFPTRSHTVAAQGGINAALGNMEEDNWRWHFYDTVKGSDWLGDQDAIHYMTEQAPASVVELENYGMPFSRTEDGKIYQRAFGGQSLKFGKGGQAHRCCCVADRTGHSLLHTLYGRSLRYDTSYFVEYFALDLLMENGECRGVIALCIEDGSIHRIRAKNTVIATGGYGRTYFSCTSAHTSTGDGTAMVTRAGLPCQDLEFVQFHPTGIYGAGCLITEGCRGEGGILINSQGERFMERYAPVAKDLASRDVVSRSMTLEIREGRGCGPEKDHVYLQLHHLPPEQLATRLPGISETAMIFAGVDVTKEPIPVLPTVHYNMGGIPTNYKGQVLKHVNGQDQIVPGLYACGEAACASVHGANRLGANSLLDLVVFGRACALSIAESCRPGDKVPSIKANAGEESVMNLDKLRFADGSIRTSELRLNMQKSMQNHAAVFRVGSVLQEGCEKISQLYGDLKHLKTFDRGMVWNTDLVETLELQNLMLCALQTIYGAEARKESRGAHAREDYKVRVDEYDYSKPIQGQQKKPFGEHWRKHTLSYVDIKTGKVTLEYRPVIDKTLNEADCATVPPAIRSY
T1 sequence (Q9CQA3 31-282): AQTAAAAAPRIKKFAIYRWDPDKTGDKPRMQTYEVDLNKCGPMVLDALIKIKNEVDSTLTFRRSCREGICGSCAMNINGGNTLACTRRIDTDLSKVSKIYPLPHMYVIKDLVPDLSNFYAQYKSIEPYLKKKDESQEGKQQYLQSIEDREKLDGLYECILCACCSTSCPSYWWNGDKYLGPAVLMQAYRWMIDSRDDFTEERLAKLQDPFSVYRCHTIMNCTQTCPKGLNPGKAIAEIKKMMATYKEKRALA
T1 sequence (Q9CZB0 30-169): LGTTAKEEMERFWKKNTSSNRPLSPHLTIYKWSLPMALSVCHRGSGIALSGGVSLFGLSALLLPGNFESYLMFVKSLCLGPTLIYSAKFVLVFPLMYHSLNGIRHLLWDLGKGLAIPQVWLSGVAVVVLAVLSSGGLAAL
T1 sequence (Q9CXV1 57-159): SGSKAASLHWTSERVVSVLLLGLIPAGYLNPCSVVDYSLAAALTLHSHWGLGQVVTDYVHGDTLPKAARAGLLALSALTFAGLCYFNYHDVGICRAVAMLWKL

SMILES: CC(=O)C(=O)[O-].[Na+] [Sodium pyruvate, sodium pyruvate]
Resistance of mclk1 −/− cells to cell death-inducing agents upon treatment with sodium pyruvate (mclk1 −/− ES cells [1]; etoposide, anisomycin, all-trans retinoic acid, serum withdrawal): indistinguishable from that of the mclk1 +/+ cells
Cell multiplication, percent of the wild-type phenotype (mclk1 −/− ES cells [2]): (75) percent of the wild-type phenotype
Cell multiplication (mclk1 −/− ES cells [2]): 18.9 ± 2.8 ×10^5 cells
Cell multiplication, percent of the wild-type phenotype (mclk1 +/+ ES cells [3]): (99) percent of the wild-type phenotype
Cell multiplication (mclk1 +/+ ES cells [3]): 25.0 ± 4.8 ×10^5 cells
Resistance to menadione [% viability] (mclk1 −/− ES cells [4]): 68.9 ± 6.5 % viability
Resistance to menadione, percent of the wild-type phenotype (mclk1 −/− ES cells [4]): (304) percent of the wild-type phenotype
Resistance to menadione [% viability] (mclk1 +/+ ES cells [5]): 23 ± 7.5 % viability
Resistance to menadione, percent of the wild-type phenotype (mclk1 +/+ ES cells [5]): (101) percent of the wild-type phenotype
Basal ROS levels (mclk1 −/− ES cells [6]): 2.3 ± 0.2 Fluorescence Unit × 100/μg pro
Basal ROS levels, percent of the wild-type phenotype (mclk1 −/− ES cells [6]): (57) percent of the wild-type phenotype
Induced ROS levels, percent of the wild-type phenotype (mclk1 −/− ES cells [6]): (70) percent of the wild-type phenotype
Induced ROS levels (mclk1 −/− ES cells [6]): 8.1 ± 1.1 Fluorescence Unit × 100/μg Pro
Basal ROS levels (mclk1 +/+ ES cells [7]): 4.1 ± 0.3 Fluorescence Unit × 100/μg pro
Basal ROS levels, percent of the wild-type phenotype (mclk1 +/+ ES cells [7]): (100) percent of the wild-type phenotype
Induced ROS levels, percent of the wild-type phenotype (mclk1 +/+ ES cells [7]): (102) percent of the wild-type phenotype
Induced ROS levels (mclk1 +/+ ES cells [7]): 11.8 ± 1.2 Fluorescence Unit × 100/μg Pro
Oxygen consumption (mclk1 +/+ ES cells [8]): 9.1 ± 0.4 103 μl O2/sec/μg of protein
Oxygen consumption, percent of the wild-type phenotype (mclk1 +/+ ES cells [8]): (98) percent of the wild-type phenotype
LIF requirement [% undifferentiated colonies, n = 300] (mclk1 +/+ ES cells [9]): 39.3 ± 12.7 % undifferentiated colonies
LIF requirement, percent of the wild-type phenotype (mclk1 +/+ ES cells [9]): (90) percent of the wild-type phenotype
LIF requirement, percent of the wild-type phenotype (mclk1 −/− ES cells [10]): (418) percent of the wild-type phenotype
Oxygen consumption (mclk1 −/− ES cells [11]): 7.9 ± 0.4 103 μl O2/sec/μg of protein
Oxygen consumption, percent of the wild-type phenotype (mclk1 −/− ES cells [11]): (85) percent of the wild-type phenotype
Effect on low respiration, slow growth, and LIF resistance phenotypes (mclk1 −/− ES cells [11]): ameliorated

Mitochondrial complex II activity without exogenous Q1 (Mitochondrial complex II; mclk1 −/− ES cells grown with the supplement): 9.1 ± 0.5 nmol/min/mg protein
Mitochondrial complex II activity with exogenous Q1 (Mitochondrial complex II; mclk1 −/− ES cells grown with the supplement, Q1 added in vitro): 39.0 ± 3.5 nmol/min/mg protein
Mitochondrial complex II activity with exogenous Q1, percent of the wild-type phenotype (Mitochondrial complex II; [12]): (64) percent of the wild-type phenotype
Mitochondrial complex II activity without exogenous Q1, percent of the wild-type phenotype (Mitochondrial complex II; [12]): (60) percent of the wild-type phenotype
SMILES: COC1=C(OC)C(=O)C(C/C=C(\C)CC/C=C(\C)CC/C=C(\C)CC/C=C(\C)CC/C=C(\C)CC/C=C(\C)CC/C=C(\C)CC/C=C(\C)CC/C=C(\C)CCC=C(C)C)=C(C)C1=O [UQ9, ubiquinone]
Cell multiplication, percent of the wild-type phenotype (mclk1 −/− ES cells [2]): (69) percent of the wild-type phenotype
Cell multiplication (mclk1 −/− ES cells [2]): 17.5 ± 0.4 ×10^5 cells
Cell multiplication, percent of the wild-type phenotype (mclk1 +/+ ES cells [3]): (100) percent of the wild-type phenotype
Cell multiplication (mclk1 +/+ ES cells [3]): 25.3 ± 5.5 ×10^5 cells
Resistance to menadione [% viability] (mclk1 −/− ES cells [4]): 91.3 ± 3.4 % viability
Resistance to menadione, percent of the wild-type phenotype (mclk1 −/− ES cells [4]): (403) percent of the wild-type phenotype
Resistance to menadione [% viability] (mclk1 +/+ ES cells [5]): 24 ± 2.9 % viability
Resistance to menadione, percent of the wild-type phenotype (mclk1 +/+ ES cells [5]): (105) percent of the wild-type phenotype
Basal ROS levels (mclk1 −/− ES cells [6]): 2.4 ± 0.3 Fluorescence Unit × 100/μg pro
Basal ROS levels, percent of the wild-type phenotype (mclk1 −/− ES cells [6]): (59) percent of the wild-type phenotype
Induced ROS levels, percent of the wild-type phenotype (mclk1 −/− ES cells [6]): (57) percent of the wild-type phenotype
Induced ROS levels (mclk1 −/− ES cells [6]): 6.7 ± 1.2 Fluorescence Unit × 100/μg Pro
Basal ROS levels (mclk1 +/+ ES cells [7]): 3.8 ± 0.2 Fluorescence Unit × 100/μg pro
Basal ROS levels, percent of the wild-type phenotype (mclk1 +/+ ES cells [7]): (94) percent of the wild-type phenotype
Induced ROS levels, percent of the wild-type phenotype (mclk1 +/+ ES cells [7]): (100) percent of the wild-type phenotype
Induced ROS levels (mclk1 +/+ ES cells [7]): 11.5 ± 0.5 Fluorescence Unit × 100/μg Pro
Oxygen consumption (mclk1 +/+ ES cells [8]): 8.96 ± 0.8 103 μl O2/sec/μg of protein
Oxygen consumption, percent of the wild-type phenotype (mclk1 +/+ ES cells [8]): (96) percent of the wild-type phenotype
LIF requirement [% undifferentiated colonies, n = 300] (mclk1 +/+ ES cells [9]): 39.0 ± 18.5 % undifferentiated colonies
LIF requirement, percent of the wild-type phenotype (mclk1 +/+ ES cells [9]): (90) percent of the wild-type phenotype
LIF requirement, percent of the wild-type phenotype (mclk1 −/− ES cells [10]): (446) percent of the wild-type phenotype
Oxygen consumption (mclk1 −/− ES cells [11]): 6.8 ± 0.7 103 μl O2/sec/μg of protein
Oxygen consumption, percent of the wild-type phenotype (mclk1 −/− ES cells [11]): (72) percent of the wild-type phenotype
Effect on low respiration, slow growth, and LIF resistance phenotypes (mclk1 −/− ES cells [11]): ameliorated

SMILES: CC1=C(/C=C/C(C)=C/C=C/C(C)=C/C(=O)O)C(C)(C)CCC1 [all-trans retinoic acid]
Sensitivity of mclk1 −/− ES cells to the cell death-inducing agent (mclk1 −/− ES cells [1]): resistant

SMILES: COc1ccc(C[C@H]2NC[C@H](O)[C@H]2OC(C)=O)cc1 [anisomycin]
Sensitivity of mclk1 −/− ES cells to the cell death-inducing agent (mclk1 −/− ES cells [1]): resistant

SMILES: COc1cc([C@@H]2c3cc4c(cc3[C@@H](O[C@@H]3O[C@@H]5CO[C@@H](C)O[C@H]5[C@H](O)[C@H]3O)[C@H]3COC(=O)[C@H]23)OCO4)cc(OC)c1O [etoposide]
Sensitivity of mclk1 −/− ES cells to the cell death-inducing agent (mclk1 −/− ES cells [1]): resistant

SMILES: CC1=CC(=O)c2ccccc2C1=O [menadione]
Sensitivity of mclk1 −/− ES cells to the cell death-inducing agent (mclk1 −/− ES cells [1]): resistance
Resistance to menadione [% viability] (mclk1 −/− ES cells [4]): 68.4 ± 5.4 % viability
Resistance to menadione, percent of the wild-type phenotype (mclk1 −/− ES cells [4]): (304) percent of the wild-type phenotype
Resistance to menadione [% viability] (mclk1 +/+ ES cells [5]): 22.7 ± 5.4 % viability
Resistance to menadione, percent of the wild-type phenotype (mclk1 +/+ ES cells [5]): (100) percent of the wild-type phenotype

SMILES: CN[C@@H]1C[C@H]2O[C@@](C)([C@@H]1OC)n1c3ccccc3c3c4c(c5c6ccccc6n2c5c31)C(=O)NC4 [staurosporine]
Sensitivity of mclk1 −/− ES cells to the cell death-inducing agent (mclk1 −/− ES cells [1]): neither resistant nor hyper-sensitive
